# What was measured:
# [1] = target: Serine/threonine-protein kinase WNK3 (Homo sapiens) (UniProt Q9BYP7); conditions: Compound concentration 1000.0 nM
# [2] = target: AP2-associated protein kinase 1 (Homo sapiens) (UniProt Q2M2I8); conditions: Compound concentration 1000.0 nM
# [3] = target: G protein-coupled receptor kinase 4 (Homo sapiens) (UniProt P32298); conditions: Compound concentration 1000.0 nM
# [4] = target: Microtubule-associated serine/threonine-protein kinase 1 (Homo sapiens) (UniProt Q9Y2H9); conditions: Compound concentration 1000.0 nM
# [5] = target: Serine/threonine-protein kinase Nek4 (Homo sapiens) (UniProt P51957); conditions: Compound concentration 1000.0 nM
# [6] = target: Cyclin-dependent kinase 2 (Homo sapiens) (UniProt P24941); conditions: Compound concentration 1000.0 nM
# [7] = tested on: Tyrosine-protein kinase ABL1 (Homo sapiens), P00519 [F317I]; conditions: Compound concentration 1000.0 nM
# [8] = target: Homeodomain-interacting protein kinase 2 (Homo sapiens) (UniProt Q9H2X6); conditions: Compound concentration 1000.0 nM
# [9] = target: Dual specificity mitogen-activated protein kinase kinase 1 (Homo sapiens) (UniProt Q02750); conditions: Compound concentration 1000.0 nM
# [10] = target: Epithelial discoidin domain-containing receptor 1 (Homo sapiens) (UniProt Q08345); conditions: Compound concentration 1000.0 nM
# [11] = target: Serine/threonine-protein kinase mTOR (Homo sapiens) (UniProt P42345); conditions: Compound concentration 1000.0 nM
# [12] = target: Death-associated protein kinase 3 (Homo sapiens) (UniProt O43293); conditions: Compound concentration 1000.0 nM
# [13] = tested on: Serine/threonine-protein kinase B-raf (Homo sapiens), P15056 [V600E]; conditions: Compound concentration 1000.0 nM
# [14] = tested on: ALK tyrosine kinase receptor (Homo sapiens), Q9UM73 [C1156Y]; conditions: Compound concentration 1000.0 nM
# [15] = target: Ribosomal protein S6 kinase alpha-3 (Homo sapiens) (UniProt P51812); conditions: Compound concentration 1000.0 nM
# [16] = target: Tyrosine-protein kinase CSK (Homo sapiens) (UniProt P41240); conditions: Compound concentration 1000.0 nM
# [17] = target: Serine/threonine-protein kinase 25 (Homo sapiens) (UniProt O00506); conditions: Compound concentration 1000.0 nM
# [18] = target: Non-receptor tyrosine-protein kinase TYK2 (Homo sapiens) (UniProt P29597); conditions: Compound concentration 1000.0 nM
# [19] = target: Protein kinase C theta type (Homo sapiens) (UniProt Q04759); conditions: Compound concentration 1000.0 nM
# [20] = target: Leukocyte tyrosine kinase receptor (Homo sapiens) (UniProt P29376); conditions: Compound concentration 1000.0 nM
# [21] = target: Tyrosine-protein kinase BTK (Homo sapiens) (UniProt Q06187); conditions: Compound concentration 1000.0 nM
# [22] = target: 3-phosphoinositide-dependent protein kinase 1 (Homo sapiens) (UniProt O15530); conditions: Compound concentration 1000.0 nM
# [23] = target: Serine/threonine-protein kinase Sgk2 (Homo sapiens) (UniProt Q9HBY8); conditions: Compound concentration 1000.0 nM
# [24] = target: Serine/threonine-protein kinase PLK4 (Homo sapiens) (UniProt O00444); conditions: Compound concentration 1000.0 nM
# [25] = target: Serine/threonine-protein kinase WNK1 (Homo sapiens) (UniProt Q9H4A3); conditions: Compound concentration 1000.0 nM
# [26] = target: Vascular endothelial growth factor receptor 1 (Homo sapiens) (UniProt P17948); conditions: Compound concentration 1000.0 nM
# [27] = target: Serine/threonine-protein kinase PRP4 homolog (Homo sapiens) (UniProt Q13523); conditions: Compound concentration 1000.0 nM
# [28] = target: RAC-beta serine/threonine-protein kinase (Homo sapiens) (UniProt P31751); conditions: Compound concentration 1000.0 nM
# [29] = target: 5-hydroxytryptamine receptor 1B (Homo sapiens) (UniProt P28222); conditions: Compound concentration 10.0 uM
# [30] = target: 5'-AMP-activated protein kinase catalytic subunit alpha-1 (Homo sapiens) (UniProt Q13131); conditions: Compound concentration 1000.0 nM
# [31] = target: Activin receptor type-2A (Homo sapiens) (UniProt P27037); conditions: Compound concentration 1000.0 nM
# [32] = target: Mitogen-activated protein kinase kinase kinase 13 (Homo sapiens) (UniProt O43283); conditions: Compound concentration 1000.0 nM
# [33] = target: Ribosomal protein S6 kinase alpha-6 (Homo sapiens) (UniProt Q9UK32); conditions: Compound concentration 1000.0 nM
# [34] = target: Tyrosine-protein kinase ABL1 (Homo sapiens) (UniProt P00519); conditions: Compound concentration 1000.0 nM
# [35] = target: Dual serine/threonine and tyrosine protein kinase (Homo sapiens) (UniProt Q6XUX3); conditions: Compound concentration 1000.0 nM
# [36] = target: Death-associated protein kinase 1 (Homo sapiens) (UniProt P53355); conditions: Compound concentration 1000.0 nM
# [37] = target: Serine/threonine-protein kinase SIK1 (Homo sapiens) (UniProt P57059); conditions: Compound concentration 1000.0 nM
# [38] = target: Histamine H2 receptor (Homo sapiens) (UniProt P25021); conditions: Compound concentration 10.0 uM
# [39] = target: Inhibitor of nuclear factor kappa-B kinase subunit epsilon (Homo sapiens) (UniProt Q14164); conditions: Compound concentration 1000.0 nM
# [40] = target: Mitogen-activated protein kinase 10 (Homo sapiens) (UniProt P53779); conditions: Compound concentration 1000.0 nM
# [41] = target: Activin receptor type-1 (Homo sapiens) (UniProt Q04771); conditions: Compound concentration 1000.0 nM
# [42] = tested on: Epidermal growth factor receptor (Homo sapiens), P00533 [L858R]; conditions: Compound concentration 1000.0 nM
# [43] = target: Casein kinase II subunit alpha (Homo sapiens) (UniProt P68400); conditions: Compound concentration 1000.0 nM
# [44] = target: Ribosomal protein S6 kinase alpha-6 (Homo sapiens) (UniProt Q9UK32); conditions: Compound concentration 1000.0 nM; remark: listed apart in the source
# [45] = target: Serine/threonine-protein kinase/endoribonuclease IRE1 (Homo sapiens) (UniProt O75460); conditions: Compound concentration 1000.0 nM
# Ribosomal protein S6 kinase alpha-6 (Homo sapiens), sequence (Q9UK32 whole entry): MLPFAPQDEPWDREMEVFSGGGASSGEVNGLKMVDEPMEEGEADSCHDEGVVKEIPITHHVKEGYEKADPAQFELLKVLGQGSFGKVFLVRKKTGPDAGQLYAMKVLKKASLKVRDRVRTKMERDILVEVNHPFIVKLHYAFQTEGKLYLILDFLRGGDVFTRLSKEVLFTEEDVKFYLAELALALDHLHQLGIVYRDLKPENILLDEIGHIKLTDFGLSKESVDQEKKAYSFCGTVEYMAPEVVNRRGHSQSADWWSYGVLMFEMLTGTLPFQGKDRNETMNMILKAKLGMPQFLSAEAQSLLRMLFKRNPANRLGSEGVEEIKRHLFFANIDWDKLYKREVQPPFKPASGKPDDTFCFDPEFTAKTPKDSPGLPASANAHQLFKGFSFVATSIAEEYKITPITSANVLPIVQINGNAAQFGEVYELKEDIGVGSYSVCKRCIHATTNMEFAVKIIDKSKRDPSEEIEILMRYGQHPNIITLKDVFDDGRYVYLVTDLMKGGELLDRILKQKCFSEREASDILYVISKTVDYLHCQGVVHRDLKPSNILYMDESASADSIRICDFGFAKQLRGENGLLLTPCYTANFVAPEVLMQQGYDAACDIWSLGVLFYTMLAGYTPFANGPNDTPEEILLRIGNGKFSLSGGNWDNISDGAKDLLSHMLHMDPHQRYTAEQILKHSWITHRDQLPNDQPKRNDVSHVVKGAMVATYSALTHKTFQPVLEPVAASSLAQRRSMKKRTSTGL
# Tyrosine-protein kinase CSK (Homo sapiens), sequence (P41240 2-450 limits assumed): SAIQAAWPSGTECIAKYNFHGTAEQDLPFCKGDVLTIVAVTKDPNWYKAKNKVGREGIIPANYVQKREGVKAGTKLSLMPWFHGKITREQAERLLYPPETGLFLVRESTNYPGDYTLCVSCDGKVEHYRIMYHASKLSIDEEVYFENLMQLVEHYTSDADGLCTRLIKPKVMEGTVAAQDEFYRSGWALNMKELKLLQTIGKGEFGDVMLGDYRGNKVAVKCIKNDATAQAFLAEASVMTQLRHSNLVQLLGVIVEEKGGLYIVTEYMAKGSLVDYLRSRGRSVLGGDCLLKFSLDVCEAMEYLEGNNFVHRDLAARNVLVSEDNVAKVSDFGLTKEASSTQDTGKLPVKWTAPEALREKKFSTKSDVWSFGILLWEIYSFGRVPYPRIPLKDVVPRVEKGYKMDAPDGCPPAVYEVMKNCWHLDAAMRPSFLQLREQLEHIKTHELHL
# Ribosomal protein S6 kinase alpha-3 (Homo sapiens), sequence (P51812 whole entry): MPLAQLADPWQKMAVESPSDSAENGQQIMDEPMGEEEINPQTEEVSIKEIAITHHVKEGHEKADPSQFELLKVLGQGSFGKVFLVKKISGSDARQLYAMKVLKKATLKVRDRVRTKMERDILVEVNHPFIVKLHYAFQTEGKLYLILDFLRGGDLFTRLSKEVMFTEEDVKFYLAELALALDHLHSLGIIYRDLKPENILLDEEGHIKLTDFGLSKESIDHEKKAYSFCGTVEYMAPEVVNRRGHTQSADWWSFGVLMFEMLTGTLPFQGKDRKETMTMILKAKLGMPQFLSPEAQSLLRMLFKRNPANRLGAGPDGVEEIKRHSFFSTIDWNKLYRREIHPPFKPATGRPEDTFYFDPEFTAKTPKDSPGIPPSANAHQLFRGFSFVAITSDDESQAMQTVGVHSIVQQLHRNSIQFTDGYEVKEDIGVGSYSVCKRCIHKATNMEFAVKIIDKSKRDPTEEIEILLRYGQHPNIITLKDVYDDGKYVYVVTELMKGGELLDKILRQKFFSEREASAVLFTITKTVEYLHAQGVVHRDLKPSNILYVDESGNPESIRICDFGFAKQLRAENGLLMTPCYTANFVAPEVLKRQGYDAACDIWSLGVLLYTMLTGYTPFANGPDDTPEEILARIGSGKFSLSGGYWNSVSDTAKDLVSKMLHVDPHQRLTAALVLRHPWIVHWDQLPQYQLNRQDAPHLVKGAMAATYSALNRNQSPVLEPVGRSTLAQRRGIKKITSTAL
# Tyrosine-protein kinase ABL1 (Homo sapiens), P00519 [F317I], sequence (P00519 whole entry F317I): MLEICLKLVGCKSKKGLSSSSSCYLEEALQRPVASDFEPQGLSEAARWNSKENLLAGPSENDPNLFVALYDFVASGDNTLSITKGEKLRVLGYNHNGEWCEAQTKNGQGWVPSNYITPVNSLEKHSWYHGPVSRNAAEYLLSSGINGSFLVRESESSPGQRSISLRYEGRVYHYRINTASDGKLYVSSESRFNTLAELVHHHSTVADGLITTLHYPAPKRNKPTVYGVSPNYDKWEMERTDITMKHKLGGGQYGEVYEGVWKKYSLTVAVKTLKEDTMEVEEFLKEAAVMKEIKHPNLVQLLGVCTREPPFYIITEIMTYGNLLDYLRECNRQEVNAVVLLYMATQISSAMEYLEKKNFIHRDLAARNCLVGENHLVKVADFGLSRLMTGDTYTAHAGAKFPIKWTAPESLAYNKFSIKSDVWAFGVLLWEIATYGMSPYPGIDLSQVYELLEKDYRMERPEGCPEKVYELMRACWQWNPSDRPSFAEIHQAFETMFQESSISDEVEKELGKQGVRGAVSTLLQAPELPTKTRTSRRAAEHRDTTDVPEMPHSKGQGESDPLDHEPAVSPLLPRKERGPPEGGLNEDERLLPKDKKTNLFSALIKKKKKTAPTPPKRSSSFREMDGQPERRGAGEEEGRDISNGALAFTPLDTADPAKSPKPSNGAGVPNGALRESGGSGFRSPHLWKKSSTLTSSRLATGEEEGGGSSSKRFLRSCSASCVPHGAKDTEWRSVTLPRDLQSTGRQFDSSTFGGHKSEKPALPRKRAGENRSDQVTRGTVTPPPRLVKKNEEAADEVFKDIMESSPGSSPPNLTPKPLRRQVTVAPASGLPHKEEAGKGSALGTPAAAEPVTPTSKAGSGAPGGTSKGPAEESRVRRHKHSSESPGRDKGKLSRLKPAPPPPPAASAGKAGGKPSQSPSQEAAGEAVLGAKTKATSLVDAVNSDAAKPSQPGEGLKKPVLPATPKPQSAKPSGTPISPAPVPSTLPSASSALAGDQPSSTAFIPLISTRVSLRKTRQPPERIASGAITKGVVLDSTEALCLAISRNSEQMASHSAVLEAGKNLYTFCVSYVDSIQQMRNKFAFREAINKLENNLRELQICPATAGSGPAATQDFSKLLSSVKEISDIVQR
# Tyrosine-protein kinase BTK (Homo sapiens), sequence (Q06187 whole entry): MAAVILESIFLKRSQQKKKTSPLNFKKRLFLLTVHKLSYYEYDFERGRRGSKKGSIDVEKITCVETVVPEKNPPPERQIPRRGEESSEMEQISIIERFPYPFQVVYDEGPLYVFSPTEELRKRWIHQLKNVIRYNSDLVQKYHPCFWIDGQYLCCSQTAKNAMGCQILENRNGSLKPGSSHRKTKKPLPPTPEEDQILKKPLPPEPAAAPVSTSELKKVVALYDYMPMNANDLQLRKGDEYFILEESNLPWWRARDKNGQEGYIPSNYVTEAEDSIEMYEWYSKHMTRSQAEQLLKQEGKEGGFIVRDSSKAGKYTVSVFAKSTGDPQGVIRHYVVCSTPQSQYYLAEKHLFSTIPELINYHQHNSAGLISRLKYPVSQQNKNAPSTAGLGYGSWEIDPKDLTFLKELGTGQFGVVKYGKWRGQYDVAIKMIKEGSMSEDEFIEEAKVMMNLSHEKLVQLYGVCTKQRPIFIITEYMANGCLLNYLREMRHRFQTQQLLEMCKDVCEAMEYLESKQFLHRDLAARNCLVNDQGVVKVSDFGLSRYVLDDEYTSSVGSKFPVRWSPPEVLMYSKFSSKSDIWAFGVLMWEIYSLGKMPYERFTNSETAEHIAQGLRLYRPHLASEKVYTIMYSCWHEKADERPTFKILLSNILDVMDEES
# Activin receptor type-1 (Homo sapiens), sequence (Q04771 whole entry): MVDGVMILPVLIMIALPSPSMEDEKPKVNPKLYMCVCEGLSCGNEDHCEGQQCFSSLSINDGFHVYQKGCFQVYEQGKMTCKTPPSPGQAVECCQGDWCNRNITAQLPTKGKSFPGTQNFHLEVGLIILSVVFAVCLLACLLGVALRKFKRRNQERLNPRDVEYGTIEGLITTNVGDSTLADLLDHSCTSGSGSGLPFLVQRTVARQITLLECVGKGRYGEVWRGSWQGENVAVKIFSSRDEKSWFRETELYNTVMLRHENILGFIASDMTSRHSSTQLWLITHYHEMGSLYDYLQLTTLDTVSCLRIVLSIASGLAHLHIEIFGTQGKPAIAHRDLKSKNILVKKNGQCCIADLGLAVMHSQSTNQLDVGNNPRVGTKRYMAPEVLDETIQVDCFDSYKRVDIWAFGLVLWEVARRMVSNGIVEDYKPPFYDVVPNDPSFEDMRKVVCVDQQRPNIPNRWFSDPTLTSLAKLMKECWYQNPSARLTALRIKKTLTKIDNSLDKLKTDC
# 3-phosphoinositide-dependent protein kinase 1 (Homo sapiens), sequence (O15530 whole entry): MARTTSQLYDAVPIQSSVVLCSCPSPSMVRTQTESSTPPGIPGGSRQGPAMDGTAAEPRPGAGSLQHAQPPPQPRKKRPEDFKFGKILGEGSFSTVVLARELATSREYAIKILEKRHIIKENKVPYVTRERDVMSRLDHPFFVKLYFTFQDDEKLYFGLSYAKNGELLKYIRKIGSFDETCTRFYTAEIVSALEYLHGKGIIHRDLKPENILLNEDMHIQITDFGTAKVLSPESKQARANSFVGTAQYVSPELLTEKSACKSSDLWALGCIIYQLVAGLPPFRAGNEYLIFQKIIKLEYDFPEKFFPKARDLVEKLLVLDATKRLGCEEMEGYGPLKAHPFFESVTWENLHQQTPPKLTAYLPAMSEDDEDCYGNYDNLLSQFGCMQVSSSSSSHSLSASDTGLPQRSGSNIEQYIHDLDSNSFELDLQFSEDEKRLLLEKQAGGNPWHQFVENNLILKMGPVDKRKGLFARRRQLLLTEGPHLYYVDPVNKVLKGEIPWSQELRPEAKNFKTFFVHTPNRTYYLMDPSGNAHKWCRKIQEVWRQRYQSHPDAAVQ
# Tyrosine-protein kinase ABL1 (Homo sapiens), sequence (P00519 whole entry): as the sequence (P00519 whole entry F317I) above, with I317F counted along it
smiles,measurement,setting,value
CCS(=O)(=O)c1cc2cc(C[C@@](O)(CC(C)(C)c3ccc(F)cc3C(N)=O)C(F)(F)F)[nH]c2cn1,residual activity,[1],100%
same,residual activity,[2],100%
same,residual activity,[3],100%
same,residual activity,[4],100%
same,residual activity,[5],91%
same,residual activity,[6],96%
same,residual activity,[7],78%
same,residual activity,[8],100%
same,residual activity,[9],68%
same,residual activity,[10],100%
same,residual activity,[11],100%
same,residual activity,[12],100%
same,residual activity,[13],100%
same,residual activity,[14],100%
same,residual activity,[15],100%
same,residual activity,[16],82%
same,residual activity,[17],87%
same,residual activity,[18],82%
same,residual activity,[19],97%
same,residual activity,[20],100%
same,residual activity,[21],100%
same,residual activity,[22],100%
same,residual activity,[23],57%
same,residual activity,[24],87%
same,residual activity,[25],90%
same,residual activity,[26],67%
same,residual activity,[27],80%
same,residual activity,[28],93%
same,inhibition,[29],4.85%
same,residual activity,[30],100%
same,residual activity,[31],94%
same,residual activity,[32],82%
same,residual activity,[33],100%
same,residual activity,[34],71%
same,residual activity,[35],100%
same,residual activity,[36],0%
same,residual activity,[37],100%
same,inhibition,[38],6.84%
same,residual activity,[39],83%
same,residual activity,[40],100%
same,residual activity,[41],100%
same,residual activity,[42],90%
same,residual activity,[43],75%
same,residual activity,[44],0%
same,residual activity,[45],75%
CCS(=O)(=O)c1cc2cc(C[C@](O)(CC(C)(C)c3ccc(F)cc3C(N)=O)C(F)(F)F)[nH]c2cn1,residual activity,[1],100%
same,residual activity,[2],100%
same,residual activity,[3],100%
same,residual activity,[4],100%
same,residual activity,[5],85%
same,residual activity,[6],94%
same,residual activity,[7],95%
same,residual activity,[8],100%
same,residual activity,[9],91%
same,residual activity,[10],94%
same,residual activity,[11],77%
same,residual activity,[12],97%
same,residual activity,[13],100%
same,residual activity,[14],96%
same,residual activity,[15],100%
same,residual activity,[16],100%
same,residual activity,[17],86%
same,residual activity,[18],100%
same,residual activity,[19],87%
same,residual activity,[20],97%
same,residual activity,[21],100%
same,residual activity,[22],100%
same,residual activity,[23],90%
same,residual activity,[24],80%
same,residual activity,[25],97%
same,residual activity,[26],81%
same,residual activity,[27],98%
same,residual activity,[28],94%
same,inhibition,[29],9.55%
same,residual activity,[30],100%
same,residual activity,[31],100%
same,residual activity,[32],90%
same,residual activity,[33],82%
same,residual activity,[34],100%
same,residual activity,[35],86%
same,residual activity,[36],92%
same,residual activity,[37],100%
same,inhibition,[38],12.3%
same,residual activity,[39],100%
same,residual activity,[40],100%
same,residual activity,[41],100%
same,residual activity,[42],100%
same,residual activity,[43],100%
same,residual activity,[44],100%
same,residual activity,[45],91%
